Like-named read-outs stand apart in the source and are kept apart here. One block for each compound: values may come before it.
Legend:
[1] = design: method as in PMID 15760043, PMID 9068926; details: cited from earlier work
[2] = in situ single-pass intestinal perfusion with simultaneous luminal perfusate and mesenteric blood sampling; type: in vivo, Sprague–Dawley rats
Procedure: LEV was assayed at 3 mg/mL, according to its high dose strength, in 250 mL TM.
Single-pass intestinal perfusion was performed in anesthetized rats according to the method described by Brouwers et al. [15], with simultaneous sampling from the luminal perfusate and mesenteric blood.
Anaesthesia was induced by intraperitoneal injection of pentobarbital sodium (60 mg/kg BW). The rats were then placed on a homeothermic blanket to maintain the body temperature at 37 °C. First, under general anaesthesia, the left jugular vein was cannulated with a heparinised (50 IU/mL) 0.5 × 0.9 mm/20 G catheter (Cavafix® MT, Braun Medical S.A., Barcelona, Spain) for infusion of donor blood. Second, a midline abdominal incision was made to isolate approximately 10 cm of the ileum using the ileocecal junction as a point of reference. Two glass cannulas (o.d. 4 mm, i.d. 3 mm, Duran®, Vidrafoc, Barcelona, Spain) were inserted at the proximal and distal ends of the isolated segment. The segment was rinsed by injection TM to remove the content until the solution came out clear. Next, the inlet cannula was connected to polyethylene tubing (i.d. 3 mm), which aspirated the tested solution (OLC or LEV) using a peristaltic pump (Minipuls3, M312 model, Gilson, Le Bel, France). Finally, the mesenteric vein draining blood from the intestinal segment was cannulated by inserting approximately 1 cm of a catheter (BD Insyte-W 24GA 0.7 × 19 mm, Becton Dickinson, Sangüesa S.A., Cornellà de Llobregat, Spain). The cannula was secured with a knot and connected to a silicone tube (i.d. 0.64 mm; o.d. 1.19 mm, Freudenberg Medical Europe, VWR International Eurolab S.L., Llinars del Vallés, Spain) that allowed blood to flow into the heparinised tubes. Care was taken to handle the small intestine gently to maintain normal blood supply. […]
The experiments were carried out in a laboratory room with infrared light to avoid oxidation of OLC. […] At the end of the experiment, the animal was euthanised by injection of air into the jugular, and the length of the intestinal segment was measured. […]

[3] = source not stated; cited from earlier work
Caco-2 cell monolayers = test system: Caco-2 cell monolayers; design: method as in PMID 10745093; details: differentiated Caco-2 cell monolayers; cited from earlier work
[4] = design: method as in PMID 11110859; details: rat intestine perfused, cited from earlier work

SMILES: C[C@H]1COc2c(N3CCN(C)CC3)c(F)cc3c(=O)c(C(=O)O)cn1c23 [LEV, levofloxacin]
- oral bioavailability [1]: ~100%

- Peff at 60 min ([2]; Sprague-Dawley, pH 7, rat ileum, disappearance from lumen, OLC 0.1 mg/mL, LEV 3 mg/mL, flow 1 mL/min, mean ± SD, n = 4, normalised to 10-cm segment, read-out: Peff (effective permeability coefficient)): 22.3 ± 31.6 ×10⁻⁶ cm/s
- Papp at 60 min ([2]; Sprague-Dawley, rat, pH 7, rat ileum, appearance in mesenteric blood, OLC 0.1 mg/mL, LEV 3 mg/mL, mean ± SD, n = 4, normalised to 10-cm segment, read-out: Papp (apparent permeability coefficient)): 4.12 ± 2.33 ×10⁻⁶ cm/s
- absorption ([2]; rat in situ intestinal perfusion, stated in conclusions): 16%
SMILES: C/C=C(/C=O)[C@@H](CC=O)CC(=O)OCCc1ccc(O)cc1 [OLC, oleocanthal]
- logP [3]: 1.15

SMILES: OCCc1ccc(O)c(O)c1 [hydroxytyrosol]
- permeability (Caco-2 cell monolayers): 12.4 ± 0.9 × 10^−6 cm/s

SMILES: C/C=C1/[C@H](O[C@@H]2O[C@H](CO)[C@@H](O)[C@H](O)[C@H]2O)OC=C(C(=O)OC)[C@H]1CC(=O)OCCc1ccc(O)c(O)c1 [oleuropein]
- intestinal permeability coefficient ([4]; hypotonic conditions): 5.92e-06 cm/s
- intestinal permeability coefficient ([4]; iso-osmotic conditions): 1.47e-06 cm/s

Reference: PMC7076358, “Absorption and Intestinal Metabolic Profile of Oleocanthal in Rats” (Pharmaceutics, 2020)
